Measured values published in a melting point compilation (Tetko et al.; mined from patent text by program, amines drawn as free bases though some values may be those of a salt).

Structure (SMILES)	melting point [°C]
O=C(O)CCCCCNC(=O)C1Cc2ccccc2N1S(=O)(=O)c1ccc(-c2cccc(C(F)(F)F)c2)cc1 (centres undefined)	50
Nc1cc(F)ccc1C(=O)NCc1ccc(Br)cc1F	120 to 121
COC(=O)C12COc3cc(C(F)(F)F)ccc3C1=NN(C(=O)N(C)c1ccc(C(F)(F)F)cc1)C2 (centres undefined)	105 to 111
CCOC(=O)c1c(C(C)C)csc1N	61 to 61.5
CCN(Cc1cc(-c2ncco2)ccc1-c1ccccc1S(=O)(=O)Nc1onc(C)c1C)CC(F)(F)F	55 to 65
O=C(Oc1ccc([N+](=O)[O-])cc1)[C@@H]1CCCN1C(=O)OCc1ccccc1	94 to 96
Cc1cccc(S(=O)(=O)Nc2cc(C)c(S(=O)(=O)C[N+](=O)[O-])c(C)c2)c1	179 to 181
CC(C)C=NNC1=NS(=O)(=O)c2ccccc21	225
CC1C[C@@H]2NC[C@@H](NC(=O)OC(C)(C)C)[C@@H]2O1 (relative stereo)	69 to 72
CCOC(=O)C1CC(=O)c2c(C)c(O)c(C)c(C)c2O1 (centres undefined)	120 to 121
CCOC(=O)c1cc(Cc2ccccc2)c(O)c2ccccc12	79 to 80
CNC(=O)c1sc(N2CCN(Cc3ccc(F)cc3)C2=O)nc1C	225 to 227
CC(=O)Oc1ccc(C(=O)O)cc1C	169 to 171
CCNC1Cc2c[nH]c3ccc(OC)c(c23)C1(C)O (centres undefined)	185 to 187
O=C1c2ccc(C(F)(F)F)cc2CCC1CN1CCC2(CC1)C(=O)NCN2c1ccccc1 (centres undefined)	159 to 162
COC(=O)C(C)c1ccc2c(c1)Cc1cc([N+](=O)[O-])ccc1-2 (centres undefined)	105 to 107
Cc1nccn1Cc1c(C(=O)O)nc2c(=O)[nH]c3cc(C(F)(F)F)ccc3n12	> 250
N#Cc1cc(F)c(N=c2snc3n2CCCC3)cc1F	137
CONC(=O)COc1cc2c(cc1C#Cc1ccccc1)NC(=O)CC(c1cccc(C#N)c1)=N2	> 250
Cc1cccc(C)c1CNc1cc(C(=O)N(C)C)nc2c(CO)c(C)[nH]c12	301
O=C1Cn2c(cc3ccccc32)C(=O)N1CCCCN1CCN(c2ncccn2)CC1	237 to 239
Cc1ccc2c(=O)[nH]sc2n1	187 to 190
CCCOc1cnc(CCl)cc1O	165 to 167
CCn1c2ccccc2c2cc(OC)c(C#N)cc21	145 to 155
COC(=O)CCN(CC(=O)O)CC(=O)O	141

Structure (SMILES)	melting point [°C]
Nc1nc2ccc(Cc3ccccc3)cc2s1	173 to 175
CC(Cl)(Cl)C(NC(=O)c1ccc(Cl)cc1)NC(=NC#N)Nc1cccnc1 (centres undefined)	185 to 187
Brc1ccc(C2NCCS2)cc1 (centres undefined)	105 to 107
CCOC(=O)C(Cl)=Cc1cc(Cl)ccc1-n1c(=O)c(Cl)c(C(F)(F)F)n(C)c1=O	160 to 164
Cc1nn(C)c2c(O)nc(C(C)C)nc12	264 to 266
CC(=NNC(N)=O)c1ccc(NS(C)(=O)=O)c(Oc2ccc(F)cc2F)c1	187 to 189
CC(C)c1ccc(C(=O)C2c3ccccc3Oc3ccccc32)c(C(C)C)c1OS(N)(=O)=O	180 to 181
Cc1oc(-c2ccco2)nc1COc1ccc(COc2ncccc2CC(=O)O)cc1	151 to 152
Cc1ccc(-n2nc3c(c2O)-c2ccccc2CC3)nc1	156 to 157
Nc1ccc(OC2=CC=CN(Oc3ccc(N)cc3)C2)cc1	152 to 154
CCN(c1nc(C)cc(C)n1)c1c(O)cc(OC)cc1Br	157 to 160
CC(=O)NCCn1c(C)ccc1C	106 to 107
O=S(c1ccc(/C=C/c2nc(COc3ccc(CCCCn4ccnn4)cc3)co2)cc1)C(F)(F)F (centres undefined)	122 to 123
CCCCCCCCCCc1csc2c1S(=O)(=O)c1c(CCCCCCCCCC)csc1-2	58.7 to 60.3
Cc1cc[nH]c(=O)c1NC(=O)c1ccccc1	264 to 265
CCc1cc2c(c(Sc3ccccc3)cc(=O)n2Cc2ccc(-c3ccccc3-c3nnn(C(c4ccccc4)(c4ccccc4)c4ccccc4)n3)cc2)c(CC)n1	156 to 158
ClCCCCc1nnnn1C1CCCCC1	50 to 51
COc1cc2c(cc1OC)C1(CCC(C(=O)O)(C(=O)O)CC1)N(C(=O)OCc1ccccc1)CC2	181 to 182
OCc1conc1-c1ccc(Cl)c(Cl)c1	103 to 104
CCC(=O)c1c(-c2cc(C)c(O)c(C)c2)c(C)n2c1-c1cc(OC)c(OC)cc1CC2	188 to 190
O=C(NCCN1CCC(=C(c2ccc(F)cc2)c2ccc(F)cc2)CC1)C1CSC(c2cccnc2)N1 (centres undefined)	119 to 121
CC(CO)NCc1ccc(-c2cc3ncnc(Nc4ccc5[nH]ccc5c4)c3s2)cc1 (centres undefined)	160 to 175
O=C(Nc1ccc2ccc(-c3ccc(F)cc3)nc2n1)c1ccc(C(F)(F)F)cc1	198
COc1ccc(OC)c(Nc2nc(-c3ccc(F)cc3)cs2)c1	160

Now from value to compound:

melting point [°C]	Structure (SMILES)
151 to 152	COc1ccc([C@H](Sc2cc(Oc3ccccc3)ccc2N)[C@@H](O)C(=O)O)cc1
46 to 48	CC(C)CN1C(=O)[C@H](CCCC#N)C[C@H]1CO
129	COc1cc(OC)nc(Oc2cccc(Oc3nc(OC)cc(OC)n3)c2C=O)n1
176 to 178	O=S(=O)(CCCCCOc1ccc(C2=C(c3ccccc3)CCCc3cc(O)ccc32)cc1)CCCC(F)(F)C(F)(F)F
99 to 100	CN(C)S(=O)(=O)c1ccc(Oc2ccc(S(=O)(=O)c3ccccc3)cc2)cc1
123 to 126	COC(=O)/C=C/c1nc(C(=O)OC)ccc1OC
116 to 119	COC1=CCCSC1c1cc(N2C(=O)C3=C(CCCC3)C2=O)ccc1Cl (centres undefined)
158	Cc1cc(NC(=O)c2cnccn2)nc(C)c1[N+](=O)[O-]
128 to 132	COc1ccc(CN2C(=O)CN(Cc3ccc4c(OC)ccnc4c3)S2(=O)=O)c(OC)c1
142 to 147	CCOC(=O)C(C)Oc1ccc(-c2nc(-c3ccc(OC(C)C(=O)OCC)cc3O)nc(-c3c(C)cc(C)cc3C)n2)c(O)c1 (centres undefined)
168 to 170	CC(C)N1C(=O)c2cnc(-c3ccccc3)nc2N(C(=O)CN2CCN(C)CC2)c2ccccc21
218 to 222	CC(=O)C(=CNc1ccc(C2=NNC(=O)CC2)cc1)C(C)=O
153 to 155	CCOC(=O)c1c(SC)nc(-c2ccc(SC)cc2)n(-c2ccc(C)cc2)c1=O
86.5 to 88.5	CCOC(=O)C1Oc2ccccc2Cc2ccccc2O1
216 to 219	O=C1COc2cc(F)c(N3N=C4CCCCC4C3=O)cc2N1Cc1ccccn1 (centres undefined)
180 to 182	C[C@H](Cn1ncnn1)n1cnc2cc3c(=O)n(Cc4c[nH]nn4)nnc3cc2c1=O
155 to 157	CC(C)C(=O)N[C@@H](CSC(=O)c1ccccc1)C(=O)NCCSC(=O)C(C)C
218 to 219	COc1ccc(CNc2nnc(-n3ccc(=O)cc3)c3ccc(C#N)cc23)cc1Cl
172 to 174	C#CCn1nc(-c2cc(C(C)(C)C)c(O)c(C(C)(C)C)c2)c2cccnc21
220 to 225	NNC(=O)Cc1cccc(Cl)n1
150 to 151	CCN(CC)c1cc(=O)c2c(o1)c(OC)cc1ccccc12
75 to 77	CCOC(=O)C(=CNc1ccn(Cc2ccco2)n1)C(=O)c1ccccc1
> 210	COc1ccnc2[nH]cc(C(C)=O)c12
148 to 149	CCOC(=O)N1CCC(=C2c3ccc(Cl)cc3OCc3cc(Br)cnc32)CC1
120 to 124	CC(C)(C)CNc1cc(N2CCNCC2)nc(NC(C)(C)C)n1

melting point [°C]	Structure (SMILES)
123 to 124	CCCCCCC(=O)Nc1cccc2c1C1(COc3cc4c(cc31)OCCO4)C(=O)N2C (centres undefined)
> 300	C[C@@H](Nc1c(Nc2ccc(C#N)c(Cl)c2)c(=O)c1=O)C(C)(C)C
190 to 192	COc1ccc(C=CC(=O)CC(=O)C=Cc2ccc(OC)c(O)c2)cc1O
103 to 105	CCOC(=O)OC1=C(c2cc(C)ccc2C)C(=O)NC1CC1CCS(=NC#N)CC1 (centres undefined)
209 to 211	CCCn1nc2c(N)nc3ccccc3c2c1CC1(O)CCOCC1
204 to 205	O=S(=O)(NCCCO)c1ccc(Nc2nccc(-c3ccc(C(F)(F)F)cc3)n2)cc1
157 to 159	O=Cc1ccc2c(c1)OC(c1ccccc1)(c1ccccc1)O2
255 to 257	CCC(C)(C)Nc1c(NCc2ccc(F)cc2)c(=O)c1=O
148 to 149	CCOC(=O)COc1ccc(C(=O)Nc2ccccc2Sc2ccc(-c3nnn[nH]3)cc2)cc1
> 250	O=C(O)C1=CSC2C(=Cc3cc4c(s3)CCOC4)C(=O)N12 (centres undefined)
139 to 140	O=C1Cc2cc(Oc3ccccc3Cl)ccc2N1
128 to 130	Cc1cc(O)cc(C)c1-c1ccccc1
200 to 201	COc1ccc2c(c1)cc(-c1ccccc1)n2-c1ccc(O)cc1
242 to 243	COc1ccc2cc3ncc(C#N)c(Cl)c3cc2c1
67	CN(C(=O)COc1nnc(C(F)F)s1)c1ccccc1
180 to 184	NCCCn1nc2c3c(c(Cl)ccc31)C(=O)c1c(OCc3ccccc3)ccc(OCc3ccccc3)c1-2
132 to 134	Cn1ccnc1S(=O)c1ccccc1Cl (centres undefined)
169 to 170	COC(=O)c1nn(-c2cccc(C(F)(F)F)c2)cc(OC)c1=O
193 to 194	O=C(O)Cc1c(-c2ccccc2)nn(-c2ccc(Cl)cc2)c1-c1ccccc1
160	CCOC(=O)C(C(=O)Nc1nccs1)C(=O)c1cccc(C(F)(F)F)c1NC(=O)C(Cl)C(C)C (centres undefined)
308 to 310	CN(c1ccc(-c2ccc(C(=N)N)cc2)nn1)[C@H]1CC[C@H](C(=O)O)CC1
105	CN[C@@H]1COc2ccc(Cl)c(-c3ccccc3Cl)c2O1
144 to 146	COc1ccc(-n2nc(Sc3ccccc3C)c(C)c(C#N)c2=O)cc1
116 to 118	O=C(O)c1ccc(OC(F)(F)F)c(OC2CCCC2)c1
89 to 90	CN1C[C@@H](O)[C@H](Oc2ccccc2)C1 (relative stereo)
